Assay results reported in patent US11135310B2, “Gold porphyrin-PEG conjugates and methods of use” (The University of Hong Kong, priority 2015, dated 2021).
Like-named read-outs stand apart in the source and are kept apart here.

Legend:
HeLa = assay: In vitro cytotoxicity, MTT assay; type: cell-based, human
Excerpt: Therefore, it was anticipated that a not too high loading of DOX into nanostructures of 1 could be used for anti-cancer purposes in order to maintain low toxicity toward non-tumorigenic cells. Together with the higher encapsulation efficiency of DOX, NC1 was selected for investigations of the in vitro cytotoxicity. […] The in vitro cytotoxicity of NC1 was also compared to that of the mixture of nanostructures of 1 and DOX. […] The observed cytotoxicity was further evaluated by the combination index (CI), which can describe the effect of drug combination. […] It is shown that dose and effect are interchangeable via defined parameters. This general equation for the single drug effect has been extended to the multiple drug effect equation for n drugs. These equations provide the theoretical basis for the combination index (CI)-isobologram equation that allows quantitative determination of drug interactions, where CI<1, =1, and >1 indicate synergism, additive effect, and antagonism, respectively. [Chou, et al. Pharmacol. Rev. 2006, 58, 621] […] The synergistic effect can originate from different molecular targets and/or mechanism of action of DOX from that of gold(III) porphyrin complexes. […] These different modes of action would allow supra-additive effect on killing HeLa cells by the co-delivery.

NCI-H460 = assay: In vitro cytotoxicity, MTT assay; type: cell-based, human; conditions: for IC50: MTT assay, 72 h incubation
non-tumorigenic cells = assay: In vitro cytotoxicity, MTT assay, non-tumorigenic cells; type: cell-based; conditions: 72 h
A2780adr [1] = conditions: for IC50: MTT assay, 72 h incubation
MIHA = assay: In vitro cytotoxicity, MTT assay
HCT116 = assay: In vitro cytotoxicity, MTT assay; type: cell-based, human; conditions: for IC50: HCT116, MTT assay, 72 h incubation
A2780 = assay: In vitro cytotoxicity, MTT assay; type: cell-based, human; conditions: for IC50: MTT assay, 72 h incubation
A2780cis = assay: In vitro cytotoxicity, MTT assay; type: cell-based, human; conditions: for IC50: MTT assay, 72 h incubation
NCM460 = assay: In vitro cytotoxicity, MTT assay; type: cell-based, human; conditions: 72 h incubation
CCD-19Lu = assay: In vitro cytotoxicity, MTT assay; type: cell-based; conditions: 72 h incubation
HCT116 cells = assay: Induction of apoptosis, CellEvent Caspase-3/7 Green (microscopy and flow cytometry); type: cell-based, human; conditions: NC1 ([1]=3.5 μM and [DOX]=0.5 μM) or DOX alone
A2780adr cells = assay: Cellular uptake of DOX, cell lysates by UPLC-QTOF-MS; type: cell-based, human; conditions: for Uptake of DOX by A2780adr cells: [DOX]=0.5 μM
A2780adr [2] = assay: cells; conditions: Homo sapiens, A2780 ADR, 72 h
[3] = MTT assay, 72 h incubation, read-out: IC50
[4] = MIHA, MTT assay, 72 h incubation
[5] = IC50 of MIHA cells/IC50 of cancer cells
[6] = IC50 of NCM460 cells/IC50 of cancer cells

In the case of `Oc1ccc(-c2c3nc(c(-c4ccccc4)c4ccc([n-]4)c(-c4ccccc4)c4nc(c(-c5ccccc5)c5ccc2[n-]5)C=C4)C=C3)cc1.[Au+3].[Cl-]` [A4], the IC50 (HeLa; [3]) is reported as 0.38 ± 0.07 µM, the IC50 (NCI-H460) is reported as 0.15 ± 0.003 µM and the “IC50 for non-tumorigenic cells” value (non-tumorigenic cells) is reported as “submicromolar range”. The IC50 (A2780adr [1]; A2780adr) was 0.53 ± 0.14 µM and the IC50 (MIHA; [4]) was 0.57 ± 0.04 µM.

`O=C(O)CCCCCCCCC(=O)Oc1ccc(-c2c3nc(c(-c4ccccc4)c4ccc([n-]4)c(-c4ccccc4)c4nc(c(-c5ccccc5)c5ccc2[n-]5)C=C4)C=C3)cc1.[Au+3].[Cl-]` [A10] was tested, and the IC50 (HeLa; [3]) was 0.41 ± 0.05 µM, the IC50 (NCI-H460) was 0.18 ± 0.004 µM and the “IC50 for non-tumorigenic cells” value (non-tumorigenic cells) was “submicromolar range”. For the same molecule, the IC50 (A2780adr [1]; A2780adr) was 0.52 ± 0.06 µM and the IC50 (MIHA; [4]) was 0.61 ± 0.05 µM.

`N.N.[Cl][Pt][Cl]` [Cisplatin, cisplatin, reference compound] gave an IC50 (HeLa; [3]) of 19.8 ± 1.4 µM, an IC50 (NCI-H460) of 65.4 ± 5 µM and an IC50 (HCT116) of 15.7 ± 2.2 µM. For the same molecule, the IC50 (A2780) was 2.6 ± 0.3 µM, the IC50 (A2780cis; A2780cis) was 8.4 ± 0.05 µM and the “Resistance found in A2780cis” value (A2780cis; Determined by IC50 of A2780cis cells/IC50 of A2780 cells) was 0.31. The IC50 (NCM460) was 12.3 ± 0.9 µM, the IC50 (CCD-19Lu) was 49.1 ± 5.4 µM and the IC50 (A2780adr [1]; A2780adr) was 12.7 ± 1.9 µM. The “Resistance found in A2780adr” value (A2780adr [1]; Determined by IC50 of A2780adr cells/IC50 of A2780 cells) was 0.20 and the IC50 (MIHA; [4]) was 17.6 ± 1.3 µM.

`COc1cccc2c1C(=O)c1c(O)c3c(c(O)c1C2=O)C[C@@](O)(C(=O)CO)C[C@@H]3O[C@H]1C[C@H](N)[C@H](O)[C@H](C)O1` [DOX, doxorubicin] showed an IC50 (HeLa; Homo sapiens, 72 h, read-out: DOX at IC50) of 0.57 µM, an IC50 (HeLa; Homo sapiens, 72 h, read-out: Total dose at IC50) of 0.57 µM and an IC50 (HeLa; Homo sapiens, MTT assay, 72 h incubation, read-out: IC50) of 0.57 ± 0.06 µM. For the same molecule, the “Toxicity (of DOX) toward cancer cells compared to that toward MIHA cells” value (“Toxicity … compared to that toward MIHA cells” for short) (HeLa; IC50 of MIHA cells/IC50 of cancer cells, cytotoxicity of 1 in NC1 not considered) was 0.2, the “Toxicity (of DOX) toward cancer cells compared to that toward NCM460 cells” value (“Toxicity … compared to that toward NCM460 cells” below) (HeLa; IC50 of NCM460 cells/IC50 of cancer cells, cytotoxicity of 1 in NC1 not considered) was 1.8 and the IC50 (NCI-H460; Homo sapiens) was 0.036 ± 0.01 µM. For the same molecule, the “Toxicity … compared to that toward MIHA cells” value (NCI-H460; [5]) was 2.8, the “Toxicity … compared to that toward NCM460 cells” value (NCI-H460; [6]) was 27.8 and the “Toxicity … compared to that toward MIHA cells” value (HCT116; HCT-116, IC50 of MIHA cells/IC50 of cancer cells) was 0.7. For the same molecule, the “Toxicity … compared to that toward NCM460 cells” value (HCT116; HCT-116, IC50 of NCM460 cells/IC50 of cancer cells) was 7.1, the IC50 (HCT116; Homo sapiens, HCT-116) was 0.14 ± 0.02 µM and the IC50 (A2780; Homo sapiens) was 0.045 ± 0.007 µM. The “Toxicity … compared to that toward MIHA cells” value (A2780; [5]) was 2.2, the “Toxicity … compared to that toward NCM460 cells” value (A2780; [6]) was 22.2 and the “Toxicity … compared to that toward MIHA cells” value (A2780cis; A2780cis, IC50 of MIHA cells/IC50 of cancer cells) was 1.9. The “Toxicity … compared to that toward NCM460 cells” value (A2780cis; A2780cis, IC50 of NCM460 cells/IC50 of cancer cells) was 18.5, the IC50 (A2780cis; Homo sapiens, A2780cis) was 0.054 ± 0.005 µM and the “Incubation time for induction of apoptosis of HCT116 cells” value (HCT116 cells) was 30 h. For the same molecule, the “DOX uptake smaller than after incubation of NC1” value (A2780adr cells; 14 h) was 1.8 fold, the “DOX uptake smaller than after incubation of NC1” value (A2780adr cells; 24 h) was 3.0 fold and the “Uptake of DOX by A2780adr cells” value (A2780adr cells; incubation 14 h) was 33.9 μg per g of proteins. The “Uptake of DOX by A2780adr cells” value (A2780adr cells; incubation 24 h) was 27.8 μg per g of proteins, the “Toxicity … compared to that toward MIHA cells” value (A2780adr [1]; A2780adr, IC50 of MIHA cells/IC50 of cancer cells) was 0.1 and the “Toxicity … compared to that toward NCM460 cells” value (A2780adr [1]; A2780adr, IC50 of NCM460 cells/IC50 of cancer cells) was 1.5. The “Lower cytotoxicity toward A2780adr cells than non-resistant A2780 cells” value (A2780adr [1]; from IC50 of Table 1) was 15 fold, the IC50 (A2780adr [2]) was 0.68 ± 0.05 µM and the IC50 (A2780adr [2]; read-out: DOX at IC50) was 0.7 µM. The IC50 (A2780adr [2]; read-out: Total dose at IC50) was 0.7 µM, the IC50 (MIHA; 72 h) was 0.1 ± 0.01 µM and the IC50 (MIHA; 72 h, read-out: DOX at IC50) was 0.1 µM. The IC50 (MIHA; 72 h, read-out: Total dose at IC50) was 0.1 µM.
